Data on 16 compounds can be found in ChEMBL document CHEMBL5325439, “Application of an "inhalation by design" approach to the identification and in-vitro evaluation of novel purine based PI3Kδ inhibitors” (Eur J Med Chem, 2023).

One may read the Ki as a dissociation constant, usually derived from enzyme kinetics or from competition with a known ligand. The term half-life denotes the time needed for the level to fall by half in the phase considered. For orientation: Papp B→A means the apparent permeability from the basolateral to the apical side of a cell layer.

Data set [1] is described as follows: Kinetic solubility of compound in PBS at pH 7.4 by HPLC analysis. Conditions: for Kinetic_solubility: buffer; for solubility kinetic: PBS, read-out: Kinetic_solubility. The class given is physicochemical.
Data set [2] concerns the target T1, Phosphatidylinositol 4,5-bisphosphate 3-kinase catalytic subunit delta isoform (Homo sapiens, UniProt O00329).
T1 sequence (O00329 whole entry): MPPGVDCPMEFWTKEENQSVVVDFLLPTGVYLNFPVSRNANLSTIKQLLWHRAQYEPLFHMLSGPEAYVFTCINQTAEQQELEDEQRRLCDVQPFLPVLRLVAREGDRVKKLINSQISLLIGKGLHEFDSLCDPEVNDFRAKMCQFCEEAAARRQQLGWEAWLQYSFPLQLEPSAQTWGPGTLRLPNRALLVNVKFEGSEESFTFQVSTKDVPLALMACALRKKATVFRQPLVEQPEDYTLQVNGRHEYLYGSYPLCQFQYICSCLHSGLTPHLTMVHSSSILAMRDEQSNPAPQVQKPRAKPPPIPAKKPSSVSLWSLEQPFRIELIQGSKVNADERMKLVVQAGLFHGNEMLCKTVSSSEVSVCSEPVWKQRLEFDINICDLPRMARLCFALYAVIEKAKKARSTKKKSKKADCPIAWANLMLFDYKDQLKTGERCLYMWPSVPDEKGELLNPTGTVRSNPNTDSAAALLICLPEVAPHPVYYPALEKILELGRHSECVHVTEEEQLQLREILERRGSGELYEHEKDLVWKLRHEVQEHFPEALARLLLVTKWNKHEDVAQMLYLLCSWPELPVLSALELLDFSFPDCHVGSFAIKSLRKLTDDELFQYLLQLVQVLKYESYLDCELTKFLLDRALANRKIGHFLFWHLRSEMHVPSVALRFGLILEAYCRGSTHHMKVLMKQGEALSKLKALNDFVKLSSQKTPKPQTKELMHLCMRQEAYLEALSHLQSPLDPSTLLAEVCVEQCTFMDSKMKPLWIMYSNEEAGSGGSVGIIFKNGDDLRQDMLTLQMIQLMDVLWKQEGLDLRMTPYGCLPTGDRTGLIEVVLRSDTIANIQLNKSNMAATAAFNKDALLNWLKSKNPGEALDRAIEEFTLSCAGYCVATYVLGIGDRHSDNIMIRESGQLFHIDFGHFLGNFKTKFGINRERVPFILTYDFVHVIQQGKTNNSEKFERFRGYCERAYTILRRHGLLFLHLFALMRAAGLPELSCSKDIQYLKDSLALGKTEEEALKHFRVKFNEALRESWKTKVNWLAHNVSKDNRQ
In words: Inhibition of recombinant human PI3Kdelta using l-a-phosphatidylinositol sodium salt and l-a-phosphatidyl-L-serine as substrate incubated for 60 mins in presence of ATP by ADP-glo kinase assay. (In ADP-Glo the light output rises with the ADP produced.)

Data set [3] deals with Phosphatidylinositol 4,5-bisphosphate 3-kinase catalytic subunit gamma isoform (Homo sapiens, UniProt P48736). The data set can be described thus: Inhibition of recombinant human PI3Kgamma using l-a-phosphatidylinositol sodium salt and l-a-phosphatidyl-L-serine as substrate incubated for 60 mins in presence of ATP by ADP-glo kinase assay.
Data set [4] addresses Phosphatidylinositol 4,5-bisphosphate 3-kinase catalytic subunit beta isoform (Homo sapiens, UniProt P42338). The data set can be described thus: Inhibition of recombinant human PI3Kbeta using l-a-phosphatidylinositol sodium salt and l-a-phosphatidyl-L-serine as substrate incubated for 60 mins in presence of ATP by ADP-glo kinase assay.
Data set [5] has as its target Phosphatidylinositol 4,5-bisphosphate 3-kinase catalytic subunit alpha isoform (Homo sapiens, UniProt P42336). The data set can be described thus: Inhibition of recombinant human PI3Kalpha using l-a-phosphatidylinositol sodium salt and l-a-phosphatidyl-L-serine as substrate incubated for 60 mins in presence of ATP by ADP-glo kinase assay.
Another data set deals with THP-1. Conditions: Homo sapiens, time 70.0 min.
Data set [6] is described as follows: Inhibition of PI3Kdelta/AKT pathway in M-CSF stimulated human THP-1 cells assessed as decrease in AKT phosphorylation preincubated for 60 mins followed by M-CSF stimulation and measured after 10 mins by HTRF analysis. Conditions: THP-1, read-out: pIC50 (converted).
Data set [7] is described as follows: Microsomal stability in rat liver microsomes assessed as clearance at 0.5 uM incubated for 30 mins. The class given is ADME, Microsome. The following applies: read-out: CLH.
Data set [8] is described as follows: Microsomal stability in human liver microsomes assessed as clearance at 0.5 uM incubated for 30 mins. Conditions: read-out: CLH. The class given is ADME, Microsome. A general note: Liver microsomes are vesicles of endoplasmic reticulum, rich in cytochrome P450 enzymes.
Data set [9] is described as follows: Metabolic stability in rat hepatocytes assessed as clearance measured per 10^6 cells at 0.5 uM incubated for 180 mins. The class given is ADME, cell-based, Hepatocyte. The following applies: read-out: CLH.
Data set [10] is described as follows: Metabolic stability in human hepatocytes assessed as clearance measured per 10^6 cells at 0.5 uM incubated for 180 mins. The class given is ADME, cell-based, Hepatocyte. The following applies: read-out: CLH.
A short description of data set [11]: Metabolic stability in rat lung S9 fraction assessed as half life measured upto 120 mins in presence of NADPH by LC-MS/MS analysis. The class given is ADME, subcellular.
Data set [12] can be described thus: Metabolic stability in human lung S9 fraction assessed as half life measured upto 120 mins in presence of NADPH by LC-MS/MS analysis. The class given is ADME, subcellular.
Data set [13] is described as follows: Apparent permeability across basolateral side to apical side in human Caco-2 cells by […] assay. The class given is ADME, cell-based.
The nature of data set [14]: Protein binding in rat plasma by rapidfire high-throughput MS analysis. The class given is ADME, cell-free. The following applies: read-out: PPB (converted).
Data set [15] is described as follows: Protein binding in human plasma by rapidfire high-throughput MS analysis. The following applies: read-out: PPB (converted). The class given is ADME, cell-free.
A short description of data set [16]: Protein binding in rat lung by rapidfire high-throughput MS analysis. The class given is ADME, tissue-based. The following applies: read-out: PB (converted).
Data set [17] deals with HepG2. The data set can be described thus: Cytotoxicity against human HepG2 cells assessed as reduction in cell viability at 3 to 30 uM incubated for 48 hrs by celltiter-glo assay. The class given is functional, cell-based. The following applies: dose 3-30 µM. Background: Cellular ATP, detected with luciferase, serves as a proxy for viable cell number.
For data set [18], the system named is HepG2. In words: Cytotoxicity against human HepG2 cells assessed as reduction in cell viability at 10 to 30 uM incubated for 48 hrs by celltiter-glo assay. The class given is functional, cell-based. Conditions: dose 10-30 µM.

≈ marks a conversion by molar mass, not a printed value. Calls of active or inactive are those of the source. Bounds are passed on as bounds.

Chain of Phosphatidylinositol 4,5-bisphosphate 3-kinase catalytic subunit beta isoform (P42338 whole entry, canonical isoform): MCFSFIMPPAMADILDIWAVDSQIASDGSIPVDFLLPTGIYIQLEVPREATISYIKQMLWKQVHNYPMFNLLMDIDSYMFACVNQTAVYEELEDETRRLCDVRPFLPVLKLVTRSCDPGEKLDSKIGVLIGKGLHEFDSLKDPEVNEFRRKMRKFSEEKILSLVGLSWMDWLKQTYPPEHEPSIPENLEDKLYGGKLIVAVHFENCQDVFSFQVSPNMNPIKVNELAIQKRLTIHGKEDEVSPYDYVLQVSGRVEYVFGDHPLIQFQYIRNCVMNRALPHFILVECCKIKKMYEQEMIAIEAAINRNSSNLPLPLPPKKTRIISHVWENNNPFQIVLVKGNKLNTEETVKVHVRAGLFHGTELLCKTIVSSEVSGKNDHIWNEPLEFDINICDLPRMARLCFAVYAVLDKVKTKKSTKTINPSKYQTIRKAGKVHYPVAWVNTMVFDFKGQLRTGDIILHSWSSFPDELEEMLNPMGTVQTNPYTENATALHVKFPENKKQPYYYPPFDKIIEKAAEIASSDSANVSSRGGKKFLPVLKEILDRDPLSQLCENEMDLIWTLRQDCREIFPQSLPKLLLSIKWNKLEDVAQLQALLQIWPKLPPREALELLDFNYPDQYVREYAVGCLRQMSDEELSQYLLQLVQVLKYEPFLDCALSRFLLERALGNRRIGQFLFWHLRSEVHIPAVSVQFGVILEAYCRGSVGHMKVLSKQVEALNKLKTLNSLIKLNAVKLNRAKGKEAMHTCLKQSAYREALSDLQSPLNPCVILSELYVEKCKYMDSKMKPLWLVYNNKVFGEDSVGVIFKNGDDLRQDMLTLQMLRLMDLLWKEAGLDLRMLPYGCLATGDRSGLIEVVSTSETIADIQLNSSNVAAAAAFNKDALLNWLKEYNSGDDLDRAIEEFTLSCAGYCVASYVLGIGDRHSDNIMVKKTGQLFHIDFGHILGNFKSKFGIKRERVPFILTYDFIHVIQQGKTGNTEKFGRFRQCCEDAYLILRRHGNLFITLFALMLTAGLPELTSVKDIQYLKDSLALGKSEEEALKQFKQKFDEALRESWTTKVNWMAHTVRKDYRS
Chain of Phosphatidylinositol 4,5-bisphosphate 3-kinase catalytic subunit gamma isoform (P48736 whole entry, canonical isoform): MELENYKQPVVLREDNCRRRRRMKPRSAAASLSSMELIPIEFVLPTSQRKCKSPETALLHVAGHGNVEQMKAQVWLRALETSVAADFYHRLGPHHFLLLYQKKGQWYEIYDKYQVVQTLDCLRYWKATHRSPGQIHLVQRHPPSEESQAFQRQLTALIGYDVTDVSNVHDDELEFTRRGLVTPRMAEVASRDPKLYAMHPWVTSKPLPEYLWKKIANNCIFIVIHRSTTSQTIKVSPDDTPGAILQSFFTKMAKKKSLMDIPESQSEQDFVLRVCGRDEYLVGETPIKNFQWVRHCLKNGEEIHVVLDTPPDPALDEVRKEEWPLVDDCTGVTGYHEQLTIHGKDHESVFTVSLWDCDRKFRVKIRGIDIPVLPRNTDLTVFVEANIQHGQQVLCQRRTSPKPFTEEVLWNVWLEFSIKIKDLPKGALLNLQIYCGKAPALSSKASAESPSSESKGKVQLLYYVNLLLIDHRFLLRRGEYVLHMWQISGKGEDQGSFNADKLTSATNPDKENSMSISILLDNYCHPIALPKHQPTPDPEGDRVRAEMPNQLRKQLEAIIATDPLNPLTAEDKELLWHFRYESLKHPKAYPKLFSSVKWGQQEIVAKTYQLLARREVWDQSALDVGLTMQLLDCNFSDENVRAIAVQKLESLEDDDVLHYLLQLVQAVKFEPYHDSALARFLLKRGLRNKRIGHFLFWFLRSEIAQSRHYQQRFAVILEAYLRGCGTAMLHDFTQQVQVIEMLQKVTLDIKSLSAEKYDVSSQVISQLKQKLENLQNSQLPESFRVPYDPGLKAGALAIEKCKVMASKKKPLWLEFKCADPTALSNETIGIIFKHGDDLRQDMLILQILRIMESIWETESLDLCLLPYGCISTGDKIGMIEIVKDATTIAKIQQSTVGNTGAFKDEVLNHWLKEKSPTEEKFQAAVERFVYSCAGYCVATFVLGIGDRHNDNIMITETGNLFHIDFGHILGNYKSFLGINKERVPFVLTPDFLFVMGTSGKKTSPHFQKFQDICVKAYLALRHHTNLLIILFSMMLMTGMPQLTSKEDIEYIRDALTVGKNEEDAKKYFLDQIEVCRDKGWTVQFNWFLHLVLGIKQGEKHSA
Chain of Phosphatidylinositol 4,5-bisphosphate 3-kinase catalytic subunit alpha isoform (P42336 whole entry, canonical isoform): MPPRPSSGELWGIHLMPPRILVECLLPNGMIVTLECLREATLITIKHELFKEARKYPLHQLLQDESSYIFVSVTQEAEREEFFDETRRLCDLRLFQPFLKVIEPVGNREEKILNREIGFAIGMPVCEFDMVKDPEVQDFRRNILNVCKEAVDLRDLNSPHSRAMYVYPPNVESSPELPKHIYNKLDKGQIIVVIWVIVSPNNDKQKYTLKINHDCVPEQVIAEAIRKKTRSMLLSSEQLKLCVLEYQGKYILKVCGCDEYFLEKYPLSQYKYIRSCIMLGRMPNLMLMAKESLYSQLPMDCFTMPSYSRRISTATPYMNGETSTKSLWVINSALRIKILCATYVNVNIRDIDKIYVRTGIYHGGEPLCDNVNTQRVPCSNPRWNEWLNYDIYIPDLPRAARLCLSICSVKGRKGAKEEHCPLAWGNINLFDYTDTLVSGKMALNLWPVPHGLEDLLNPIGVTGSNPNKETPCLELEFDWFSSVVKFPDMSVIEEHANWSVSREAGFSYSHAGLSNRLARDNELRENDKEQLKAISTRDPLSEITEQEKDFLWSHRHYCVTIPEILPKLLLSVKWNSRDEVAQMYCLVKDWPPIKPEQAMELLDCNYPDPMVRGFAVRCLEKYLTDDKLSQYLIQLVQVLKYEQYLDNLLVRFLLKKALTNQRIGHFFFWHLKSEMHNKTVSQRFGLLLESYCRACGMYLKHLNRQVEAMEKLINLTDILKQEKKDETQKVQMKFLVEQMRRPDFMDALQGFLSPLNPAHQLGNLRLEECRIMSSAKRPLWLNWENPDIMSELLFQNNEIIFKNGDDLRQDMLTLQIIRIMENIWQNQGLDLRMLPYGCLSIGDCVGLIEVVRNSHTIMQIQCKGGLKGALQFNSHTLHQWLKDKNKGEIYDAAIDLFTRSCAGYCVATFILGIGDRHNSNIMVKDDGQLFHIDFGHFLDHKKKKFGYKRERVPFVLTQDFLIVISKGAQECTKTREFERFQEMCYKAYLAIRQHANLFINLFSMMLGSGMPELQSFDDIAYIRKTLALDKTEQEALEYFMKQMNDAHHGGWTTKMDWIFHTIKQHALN

`CC(C)c1ccc(CCn2c(=O)[nH]c3c(C(N)=O)nc(-c4cccc(O)c4)nc32)cc1`: the Kinetic_solubility entry in data set [1] was “Not Active”.

`NC(=O)c1nc(-c2cccc(O)c2)nc2c1[nH]c(=O)n2CC1CCS(=O)(=O)C1` (stereo not given): the Ki in data set [2] is over 20000 nM; in data set [3], 1260 nM; in data set [4], 631 nM; in data set [5], 100 nM.

As to `NC(=O)c1nc(-c2cccc(O)c2)nc2c1[nH]c(=O)n2CC1CCOC1` (stereo not given), the Ki in [2] was 39.8 nM; in [3] it was 251 nM; in [4] it was 316 nM; in data set [5], 39.8 nM.

`NC(=O)c1nc(-c2cccc3[nH]ccc23)nc2c1[nH]c(=O)n2CCc1ccc(Cl)c(Cl)c1`: the Ki in data set [5] was at least 20000 nM.

On to `NC(=O)c1nc(-c2cccc(O)c2)nc2c1[nH]c(=O)n2C1CC1c1ccccc1` (stereo not given), for which the Ki in data set [2] is 63.1 nM; in data set [3], 158 nM; in data set [4], 158 nM; in data set [5], 158 nM. Moreover, the Kinetic_solubility result in [1] was “Not Active”. The pIC50 result in the data set with THP-1 is “inactive”.

Take `NC(=O)c1nc(-c2cccc(O)c2)nc2c1[nH]c(=O)n2C1CCN(Cc2ccccc2)C1` (stereo not given): the Ki in data set [2] is 5.01 nM; in data set [3], 316 nM; in data set [4], 20 nM; in data set [5] it was 126 nM. The IC50 in data set [6] is 316 nM. Besides, the solubility kinetic in [1] came to 178 µM (≈ 76.6 µg/mL). The figures for the microsomal CLint at 0.5 µM in data set [7] and in [8] were 133 µL/min/mg and 70 µL/min/mg, respectively. In addition, the hepatocyte CLint at 0.5 µM in data set [9] was determined as 163 µL/min/1e6 cells; in [10] it was 55 µL/min/1e6 cells. Moreover, the half-life in [11] is over 8.33 h; in data set [12], 2.36 h. Also, the Papp B→A in [13] was found to be 0.2 ×10⁻⁶ cm/s. The fraction unbound in data set [14] was 0.033; in data set [15], 0.032; in data set [16], 0.021. Further, in the data set with HepG2 [17], the outcome was inactive.

As to `CC(Cc1ccc(Cl)c(Cl)c1)n1c(=O)[nH]c2c(C(N)=O)nc(-c3cccc(O)c3)nc21` (stereo not given), the Ki was 3.16 nM in [2], 398 nM in data set [3], 6.31 nM in data set [4] and 200 nM in data set [5]. Further, the IC50 in data set [6] was 100 nM. Further, the solubility kinetic in data set [1] was 414 µM (≈ 190 µg/mL). The microsomal CLint at 0.5 µM amounted to 50 µL/min/mg in data set [7] and 19 µL/min/mg in [8]. Also, the values for the hepatocyte CLint at 0.5 µM in data set [9] and in data set [10] were 120 µL/min/1e6 cells and 79 µL/min/1e6 cells, respectively. In addition, the half-life in [11] and in data set [12] was over 8.33 h throughout. For the same compound, the fraction unbound in data set [14], in data set [15] and in data set [16] was under 0.01 in each case. The result in the data set on HepG2 [17] was inactive.

On to `Cc1ccc(O)cc1-c1nc(C(N)=O)c2[nH]c(=O)n(CCc3ccc(Cl)c(Cl)c3)c2n1`, for which the solubility kinetic in data set [1] came to 498 µM (≈ 228 µg/mL).

As for `NC(=O)c1nc(-c2cccc(O)c2)nc2c1[nH]c(=O)n2-c1ccc(F)cc1`, the Ki in data set [5] was 79.4 nM.

Regarding `NC(=O)c1nc(-c2cccc(O)c2)nc2c1[nH]c(=O)n2CCc1cccs1`, the solubility kinetic in data set [1] was determined as 405 µM (≈ 154 µg/mL).

Turning to `NC(=O)c1nc(-c2cccc(O)c2)nc2c1[nH]c(=O)n2CCc1ccc(Cl)c(Cl)c1`, in [1], the solubility kinetic was 62 µM (≈ 27.5 µg/mL).

Turning to `NC(=O)c1nc(-c2cccc3[nH]ncc23)nc2c1[nH]c(=O)n2CCc1ccc(Cl)c(Cl)c1`, the Ki is 126 nM in data set [2] and 1580 nM in [3].

For the compound `CN(C)Cc1cccc(-c2nc(C(N)=O)c3[nH]c(=O)n(CCc4ccc(Cl)c(Cl)c4)c3n2)c1`, the Ki in data set [2], in data set [3], in data set [4] and in [5] was at least 20000 nM throughout.

Turning to `NC(=O)c1nc(-c2cccc(O)c2)nc2c1[nH]c(=O)n2-c1ccc(N2CCOCC2)cc1`, the Ki is 50.1 nM in data set [2], 126 nM in data set [3], 158 nM in [4] and 39.8 nM in data set [5].

Turning to `NC(=O)c1nc(-c2cccc(O)c2)nc2c1[nH]c(=O)n2CCc1ccc2c(c1)OCO2`, in [1], the Kinetic_solubility entry was “Not Active”.

`CC[C@H](Nc1ncnc2[nH]cnc12)c1nc2cccc(F)c2c(=O)n1-c1ccccc1` [IDELALISIB]: the result in the data set on HepG2 [18] was Active. Also, the IC50 in [6] is 31.6 nM. In addition, the Papp B→A in [13] came out at 23.4 ×10⁻⁶ cm/s. The fraction unbound in data set [14] was 0.148; in data set [15] it was 0.031; in data set [16], 0.139.
